Series [1] can be described thus: Toxicity Study of FP-nanoparticle in C3H mice (hematological parameters, hepatic and renal function). Format: in vivo. The following applies: tail vein three times every other day. As to the method: C3H mice were injected with a nanoparticle containing a peptide (either the FUS-1 peptide or a nonspecific peptide), and various toxicological parameters were subsequently analyzed at 1, 2 and 3 weeks after injection. Control mice (“Group IX”) were injected with PBS. The toxicological parameters evaluated included hematological parameters (i.e., red blood cell counts “RBC” and white blood cell counts “WBC”), analysis of hepatic function (i.e., AST, ALT, and total bilirubin analysis) and analysis of renal function (i.e., evaluation of creatinine levels). Either DOTAP:cholesterol nanoparticles or DOPC (neutral liposome) nanoparticles were used. The amount of peptide-containing nanoparticle administered to the C3H mice varied from 2 mg/kg to 5 mg/kg. These studies are summarized below in Table V.

The next series relates to H1299 cells. The series is described as follows: Soft agar colony assay. Format: cell-based, human.
For series [2], the system named is normal bronchial epithelial CCD16 cells. The series is described as follows: Cell growth / cytotoxicity in normal cells, XTT assay. Format: cell-based, human. As to conditions: at the IC80 doses to all other NSCLC cells.
For another series, the target named is T1, c-Abl tyrosine kinase (Abelson murine leukemia virus, UniProt P00521).
T1 construct: truncated commercial (New England Bio-Labs) cAbl tyrosine kinase (45 kD) containing only the SH2 and SH1 domains; purchased New England Bio-Labs; host or cells: bacteria
T1 sequence (P00521 1-398): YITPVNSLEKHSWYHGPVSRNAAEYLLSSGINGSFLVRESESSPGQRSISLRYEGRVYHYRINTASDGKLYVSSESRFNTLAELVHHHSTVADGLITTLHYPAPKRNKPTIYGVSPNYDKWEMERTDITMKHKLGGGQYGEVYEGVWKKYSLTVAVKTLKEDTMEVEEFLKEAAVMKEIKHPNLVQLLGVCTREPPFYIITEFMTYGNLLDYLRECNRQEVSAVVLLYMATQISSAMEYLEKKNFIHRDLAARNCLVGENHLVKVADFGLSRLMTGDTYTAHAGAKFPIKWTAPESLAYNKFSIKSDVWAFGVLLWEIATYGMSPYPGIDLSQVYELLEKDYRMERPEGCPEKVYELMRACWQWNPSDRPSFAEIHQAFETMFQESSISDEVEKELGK
Format: biochemical. As to conditions: for inhibition of Abl tyrosine kinase: commercial / bacterially purified Abl kinase, GST-Crk substrate. The method, then:
A zero peptide control, a DMSO control, a DMSO plus stearic acid control, and 20, 25, 30, 35, 40, 45, 50 and 55:M of peptide were evaluated.
After 30 minutes of incubation at 30 degrees, samples were boiled with 2×SDS sample buffer and run on an 8% SDS PAGE gel. The gel was dried and exposed to a phosphoimager.
GST-Crk phosphorylation was quantified by using a phosphoimager.

Series [3] has as its system Rat-1 cells transformed with an activated c-Abl tyrosine kinase. Kind of series: Foci formation in Rat-1 cells transformed by c-Abl. Format: cell-based.
From the text: Rat-1 SH2 cells express GFP as a marker. A fluorescent photo was taken of green fluorescing Rat-1 SH2 cells treated with peptide. A phase contrast photo of the field was produced. […] (Rat-1 SH2+M74) and (Rat-1 SH2+ stearic acid) were imaged.
Setting [4] is: 2 mg/kg, 1st week after last treatment.
Where [5] appears, read: 2 mg/kg, 2nd week after last treatment.
The mark [6] stands for this setting: 2 mg/kg, 3rd week after last treatment.
Setting [7] is: 5 mg/kg, 1st week after last treatment.
The mark [8] stands for this setting: 5 mg/kg, 2nd week after last treatment.
[9] abbreviates: 5 mg/kg, 3rd week after last treatment.
The mark [10] stands for this setting: Rat-1 cells transformed with activated c-Abl.

“Also recorded” adds a separate entry of the source. Structures can show the parent of a compound that is named as a salt. Where two headings read alike, the source gives them in different places. Where a SMILES comes first, the peptide text is derived from it. Where no end group is shown, it is not given here. The star is where a group is joined. Stearoyl = CCCCCCCCCCCCCCCCCC(=O)*

The text below walks through data of patent US8859727B2, “Bioactive FUS1 peptides and nanoparticle-polypeptide complexes” (Board of Regents, The University of Texas System, priority 2005, dated 2014).

As to `CCCCCCCCCCCCCCCCCC(=O)N[C@@H](CC(=O)O)C(=O)N[C@@H](CC(C)C)C(=O)N[C@H](C(=O)N[C@@H](CCC(=O)O)C(=O)N[C@@H](CCC(=O)O)C(=O)N[C@@H](C)C(=O)N[C@@H](C)C(=O)N[C@@H](CO)C(=O)N[C@@H](CCCNC(=N)N)C(=O)N1CCC[C@H]1C(=O)N[C@H](C(=O)N[C@@H](CC(=O)O)C(=O)N[C@@H](C)C(=O)N[C@H](C(=O)N1CCC[C@H]1C(=O)N[C@@H](CCC(=O)O)C(=O)N[C@@H](CCC(N)=O)C(=O)N[C@H](C(=O)N[C@@H](CCCCN)C(=O)N[C@@H](C)C(=O)N[C@@H](C)C(=O)NCC(=O)N[C@@H](C)C(=O)N[C@@H](Cc1ccc(O)cc1)C(=O)O)C(C)C)C(C)C)C(C)C)[C@@H](C)CC` [NSP] (Stearoyl-DLIEEAASRPVDAVPEQVKAAGAY-OH), the ALT in series [1] (setting [4]) turned out to be 76 ± 7.87 U/L; in series [1] (setting [5]), 61.67 ± 5.44 U/L; in series [1] (setting [6]), 58.67 ± 12.55 U/L; in series [1] (setting [7]), 91.5 ± 7.5 U/L; in series [1] (setting [8]) it was 54 ± 9.93 U/L; in series [1] (setting [9]) it was 50 ± 6.16 U/L. Further, the AST in series [1] (setting [4]) was 183 ± 6 U/L; in series [1] (setting [5]) it was 146 ± 45.31 U/L; in series [1] (setting [6]) it was 94.67 ± 28.59 U/L; in series [1] (setting [7]), 148.5 ± 13.5 U/L; in series [1] (setting [8]) it was 96.33 ± 20.24 U/L; in series [1] (setting [9]), 83.67 ± 23.63 U/L. In addition, the Creatinine came to 0.6 ± 0 mg/dL in series [1] (setting [4]); 0.5 ± 0.10 mg/dL in series [1] (setting [5]); 0.38 ± 0.09 mg/dL in series [1] (setting [6]); 0.317 ± 0.02 mg/dL in series [1] (setting [7]); 0.35 ± 0.02 mg/dL in series [1] (setting [8]); 0.32 ± 0.04 mg/dL in series [1] (setting [9]). Besides, the “Total Bilirubin” value in series [1] (setting [4]) amounted to 2.7 ± 0 mg/dL; in series [1] (setting [5]), 1.13 ± 1.09 mg/dL; in series [1] (setting [6]) it was 0.6 ± 0.42 mg/dL; in series [1] (setting [7]) it was 1.8 ± 1.2 mg/dL; in series [1] (setting [8]) it was 0.7 ± 0.28 mg/dL; in series [1] (setting [9]), 0.43 ± 0.12 mg/dL. Also, the RBC is on record as 6.23 ± 0.33 ×10^9 in series [1] (setting [5]), 5.7 ± 1.14 ×10^9 in series [1] (setting [6]), 7.47 ± 2.28 ×10^9 in series [1] (setting [8]) and 6.67 ± 0.69 ×10^9 in series [1] (setting [9]). The WBC in series [1] (setting [5]) was 1.93 ± 0.58 ×10^9; in series [1] (setting [6]), 1.93 ± 0.45 ×10^9; in series [1] (setting [8]), 1.6 ± 0.24 ×10^9; in series [1] (setting [9]) it was 1.6 ± 0.14 ×10^9.
`Cc1ccc(NC(=O)c2ccc(CN3CCN(C)CC3)cc2)cc1Nc1nccc(-c2cccnc2)n1` [imatinib, imatinib mesylate]: the colony-forming ability result with H1299 cells (1-10 uM, dose-dependent, number and size of colonies) was “strongly inhibited”. The size of colonies entry in the series on H1299 cells (10:M, compared to untreated cells) is listed as “reduced in size”. Also, the number of colonies result with H1299 cells (10:M, compared to untreated control) is on record as “almost complete reduction in the number of colonies”.
For `CCCCCCCCCCCCCCCCCC(=O)N[C@@H](CCCCN)C(=O)N[C@@H](CC(C)C)C(=O)N[C@@H](CCCNC(=N)N)C(=O)N[C@@H](CCCNC(=N)N)C(=O)N[C@H](C(=O)N[C@@H](Cc1c[nH]cn1)C(=O)N[C@@H](CCCCN)C(=O)N[C@@H](CC(N)=O)C(=O)N[C@@H](CC(C)C)C(=O)N[C@H](C(=O)N1CCC[C@H]1C(=O)N[C@@H](CCC(N)=O)C(=O)NCC(=O)N[C@H](C(=O)N[C@H](C(=O)N[C@@H](CCCCN)C(=O)N[C@@H](CC(C)C)C(=O)N[C@@H](CC(=O)O)C(=O)N[C@@H](Cc1c[nH]cn1)C(=O)N1CCC[C@H]1C(=O)N[C@@H](CCCNC(=N)N)C(=O)O)C(C)C)[C@@H](C)CC)[C@@H](C)CC)C(C)C` [st-wt-FP] (Stearoyl-KLRRVHKNLIPQGIVKLDHPR-OH), the “cytotoxicity in normal cells” value in series [2] is “No significant cytotoxicity”.
For `CCCCCCCCCCCCCCCCCC(=O)O` [stearic acid], the “inhibition of Abl tyrosine kinase” value against c-Abl tyrosine kinase is given as “no inhibitory effects; also recorded: not inhibitory”; against c-Abl tyrosine kinase (listed as Stearate) it was “not inhibitory”. Also, the foci formation entry was “no effect” in series [3] (30:M, Rat-1 SH2 cells) and “no effects” in series [3] (setting [10]).
Consider “Non-stearate FUS1 peptide: Fus1 peptide sequence without the stearic acid moiety (KLRRVHKNLIPQGIVKLDHR)”, for which the “inhibition of Abl tyrosine kinase activity” value with c-Abl tyrosine kinase (0-60 uM, 45 kD Abl tyrosine kinase, GST-Crk phosphorylation) was “did not inhibit”. In addition, the “inhibition of Abl tyrosine kinase” value with c-Abl tyrosine kinase is “did not inhibit”; in the series with c-Abl tyrosine kinase (listed as Fus1 peptide lacking the stearate N-terminal moiety), “inactive”.
“Stearic acid-KLRRVHKNLIPQGIVKLDHR (Stearoyl-KLRRVHKNLIPQGIVKLDHR) [stearate-Fus1 peptide]”: the “inhibition of Abl tyrosine kinase” value with c-Abl tyrosine kinase was “strongly inhibitory”. Further, the foci formation entry in series [3] (40 μM) and in series [3] (setting [10]) was “blocked foci formation” each time.
